Assay results from ChEMBL document CHEMBL6109159, “Discovery of a Potent and Selective Protein Arginine Methyltransferase 5 (PRMT5) PROTAC Degrader” (J Med Chem, 2025).
The source made the active and inactive calls. The rule behind the calls is not given here.

Experiments:
Format in all cases: cell-based
[1] = biological target: T1, von Hippel-Lindau disease tumor suppressor/Protein arginine N-methyltransferase 5 (Homo sapiens, UniProt O14744+P40337); assay: PROTAC activity at […]/VHL in human MDA-MB-468 cells assessed as relative protein level at 0.5 uM measured after 24 hrs by Western blot analysis
T1 sequence (O14744 whole entry, looked up): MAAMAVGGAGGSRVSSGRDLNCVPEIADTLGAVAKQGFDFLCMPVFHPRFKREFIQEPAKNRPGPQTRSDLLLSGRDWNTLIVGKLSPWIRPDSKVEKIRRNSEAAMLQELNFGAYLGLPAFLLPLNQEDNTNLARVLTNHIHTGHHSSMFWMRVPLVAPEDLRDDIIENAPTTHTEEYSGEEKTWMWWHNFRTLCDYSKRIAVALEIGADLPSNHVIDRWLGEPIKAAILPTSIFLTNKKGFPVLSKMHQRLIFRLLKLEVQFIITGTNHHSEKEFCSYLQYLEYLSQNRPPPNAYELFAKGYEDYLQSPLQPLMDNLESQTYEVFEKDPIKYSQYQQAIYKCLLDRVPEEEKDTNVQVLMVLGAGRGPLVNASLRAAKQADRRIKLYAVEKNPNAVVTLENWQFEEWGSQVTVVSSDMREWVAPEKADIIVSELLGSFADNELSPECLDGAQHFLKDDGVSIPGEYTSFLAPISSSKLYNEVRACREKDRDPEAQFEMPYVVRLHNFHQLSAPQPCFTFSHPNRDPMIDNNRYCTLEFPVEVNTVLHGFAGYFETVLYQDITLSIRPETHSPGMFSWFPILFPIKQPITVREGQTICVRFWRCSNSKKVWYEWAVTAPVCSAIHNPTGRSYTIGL
T1 sequence (P40337 whole entry, looked up): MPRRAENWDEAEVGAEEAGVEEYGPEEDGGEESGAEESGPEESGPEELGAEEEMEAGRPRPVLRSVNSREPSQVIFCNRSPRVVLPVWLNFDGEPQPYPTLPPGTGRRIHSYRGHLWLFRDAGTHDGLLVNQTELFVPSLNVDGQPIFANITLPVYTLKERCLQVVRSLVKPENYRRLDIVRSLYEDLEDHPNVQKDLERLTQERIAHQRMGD

[2] = biological target: T2, von Hippel-Lindau disease tumor suppressor/Methylosome protein WDR77 (Homo sapiens, UniProt Q9BQA1+P40337); assay: PROTAC activity at MEP50/VHL in human MDA-MB-468 cells assessed as relative protein level at 5 uM measured after 24 hrs by Western blot analysis
T2 sequence (P40337 whole entry, looked up): as above
T2 sequence (Q9BQA1 whole entry, looked up): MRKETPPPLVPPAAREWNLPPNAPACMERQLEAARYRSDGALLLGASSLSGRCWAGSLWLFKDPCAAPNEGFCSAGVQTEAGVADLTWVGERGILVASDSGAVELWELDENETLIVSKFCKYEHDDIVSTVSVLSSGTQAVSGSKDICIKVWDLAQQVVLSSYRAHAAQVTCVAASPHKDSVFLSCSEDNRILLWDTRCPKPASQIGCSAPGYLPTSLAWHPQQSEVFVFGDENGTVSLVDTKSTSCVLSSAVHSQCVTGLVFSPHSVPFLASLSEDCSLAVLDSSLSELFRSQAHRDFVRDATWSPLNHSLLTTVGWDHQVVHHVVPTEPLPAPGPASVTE

[3] = biological target: T2, von Hippel-Lindau disease tumor suppressor/Methylosome protein WDR77; assay: PROTAC activity at MEP50/VHL in human MDA-MB-468 cells assessed as relative protein level at 0.5 uM measured after 24 hrs by Western blot analysis
[4] = biological target: T1, von Hippel-Lindau disease tumor suppressor/Protein arginine N-methyltransferase 5; assay: PROTAC activity at PRMT5/VHL in human MDA-MB-468 cells assessed as relative protein level at 5 uM measured after 24 hrs by Western blot analysis

Row | Compound | Activity [1] | Activity [2] | Activity [3] | Activity [4]
1 | Cc1ncsc1-c1ccc(CNC(=O)[C@@H]2C[C@@H](O)CN2C(=O)[C@@H](NC(=O)C2(F)CC2)C(C)(C)C)c(OCC(=O)NCCOCCOCCOCCC(=O)N2CCC(Nc3cc(C(=O)NC[C@H](O)CN4CCc5ccccc5C4)ncn3)CC2)c1 | Active | Active | Active | Active
2 | Cc1ncsc1-c1ccc([C@H](CC(=O)NCCCCCCC(=O)N2CCC(Nc3cc(C(=O)NC[C@H](O)CN4CCc5ccccc5C4)ncn3)CC2)NC(=O)[C@@H]2C[C@@H](O)CN2C(=O)[C@@H](NC(=O)C2(F)CC2)C(C)(C)C)cc1 | Active | Active | Active | Active
3 | Cc1ncsc1-c1ccc(CNC(=O)[C@@H]2C[C@@H](O)CN2C(=O)[C@@H](NC(=O)C2(F)CC2)C(C)(C)C)c(OCC(=O)NCCCC(=O)N2CCC(Nc3cc(C(=O)NC[C@H](O)CN4CCc5ccccc5C4)ncn3)CC2)c1 | Active | Active | Active | Active
4 | Cc1ncsc1-c1ccc([C@H](CC(=O)NCCCCCCCC(=O)N2CCC(Nc3cc(C(=O)NC[C@H](O)CN4CCc5ccccc5C4)ncn3)CC2)NC(=O)[C@@H]2C[C@@H](O)CN2C(=O)[C@@H](NC(=O)C2(F)CC2)C(C)(C)C)cc1 | Active | Active | Active | Active
5 | Cc1ncsc1-c1ccc([C@H](CC(=O)NCCOCCC(=O)N2CCC(Nc3cc(C(=O)NC[C@H](O)CN4CCc5ccccc5C4)ncn3)CC2)NC(=O)[C@@H]2C[C@@H](O)CN2C(=O)[C@@H](NC(=O)C2(F)CC2)C(C)(C)C)cc1 | inactive | inactive | inactive | inactive
6 | Cc1ncsc1-c1ccc(CNC(=O)[C@@H]2C[C@@H](O)CN2C(=O)[C@@H](NC(=O)C2(F)CC2)C(C)(C)C)c(OCC(=O)NCCCCC(=O)N2CCC(Nc3cc(C(=O)NC[C@H](O)CN4CCc5ccccc5C4)ncn3)CC2)c1 | Active | Active | Active | Active
7 | Cc1ncsc1-c1ccc([C@H](CC(=O)NCC(=O)N2CCC(Nc3cc(C(=O)NC[C@H](O)CN4CCc5ccccc5C4)ncn3)CC2)NC(=O)[C@@H]2C[C@@H](O)CN2C(=O)[C@@H](NC(=O)C2(F)CC2)C(C)(C)C)cc1 | Active | Active | Active | Active
8 | Cc1ncsc1-c1ccc([C@H](CC(=O)N2CCC(Nc3cc(C(=O)NC[C@H](O)CN4CCc5ccccc5C4)ncn3)CC2)NC(=O)[C@@H]2C[C@@H](O)CN2C(=O)[C@@H](NC(=O)C2(F)CC2)C(C)(C)C)cc1 | Active | Active | Active | Active
9 | Cc1ncsc1-c1ccc(CNC(=O)[C@@H]2C[C@@H](O)CN2C(=O)[C@@H](NC(=O)C2(F)CC2)C(C)(C)C)c(OCC(=O)N2CCC(Nc3cc(C(=O)NC[C@H](O)CN4CCc5ccccc5C4)ncn3)CC2)c1 | Active | Active | Active | Active
10 | Cc1ncsc1-c1ccc([C@H](CC(=O)NCCCCC(=O)N2CCC(Nc3cc(C(=O)NC[C@H](O)CN4CCc5ccccc5C4)ncn3)CC2)NC(=O)[C@@H]2C[C@@H](O)CN2C(=O)[C@@H](NC(=O)C2(F)CC2)C(C)(C)C)cc1 | Active | Active | Active | Active
11 | Cc1ncsc1-c1ccc(CNC(=O)[C@@H]2C[C@@H](O)CN2C(=O)[C@@H](NC(=O)C2(F)CC2)C(C)(C)C)c(OCC(=O)NCC(=O)N2CCC(Nc3cc(C(=O)NC[C@H](O)CN4CCc5ccccc5C4)ncn3)CC2)c1 | Active | Active | Active | Active
12 | Cc1ncsc1-c1ccc(CNC(=O)[C@@H]2C[C@@H](O)CN2C(=O)[C@@H](NC(=O)C2(F)CC2)C(C)(C)C)c(OCC(=O)NCCCCCC(=O)N2CCC(Nc3cc(C(=O)NC[C@H](O)CN4CCc5ccccc5C4)ncn3)CC2)c1 | Active | Active | Active | Active
13 | Cc1ncsc1-c1ccc([C@H](CC(=O)NCCC(=O)N2CCC(Nc3cc(C(=O)NC[C@H](O)CN4CCc5ccccc5C4)ncn3)CC2)NC(=O)[C@@H]2C[C@@H](O)CN2C(=O)[C@@H](NC(=O)C2(F)CC2)C(C)(C)C)cc1 | Active | Active | Active | Active
14 | Cc1ncsc1-c1ccc(CNC(=O)[C@@H]2C[C@@H](O)CN2C(=O)[C@@H](NC(=O)C2(F)CC2)C(C)(C)C)c(OCC(=O)NCCOCCC(=O)N2CCC(Nc3cc(C(=O)NC[C@H](O)CN4CCc5ccccc5C4)ncn3)CC2)c1 | Active | Active | Active | Active
15 | Cc1ncsc1-c1ccc(CNC(=O)[C@@H]2C[C@@H](O)CN2C(=O)[C@@H](NC(=O)C2(F)CC2)C(C)(C)C)c(OCC(=O)NCCOCCOCCC(=O)N2CCC(Nc3cc(C(=O)NC[C@H](O)CN4CCc5ccccc5C4)ncn3)CC2)c1 | inactive | inactive | inactive | inactive
16 | Cc1ncsc1-c1ccc([C@H](CC(=O)NCCCCCC(=O)N2CCC(Nc3cc(C(=O)NC[C@H](O)CN4CCc5ccccc5C4)ncn3)CC2)NC(=O)[C@@H]2C[C@@H](O)CN2C(=O)[C@@H](NC(=O)C2(F)CC2)C(C)(C)C)cc1 | Active | Active | Active | Active
17 | Cc1ncsc1-c1ccc([C@H](CC(=O)NCCCC(=O)N2CCC(Nc3cc(C(=O)NC[C@H](O)CN4CCc5ccccc5C4)ncn3)CC2)NC(=O)[C@@H]2C[C@@H](O)CN2C(=O)[C@@H](NC(=O)C2(F)CC2)C(C)(C)C)cc1 | Active | Active | Active | Active
18 | Cc1ncsc1-c1ccc(CNC(=O)[C@@H]2C[C@@H](O)CN2C(=O)[C@@H](NC(=O)C2(F)CC2)C(C)(C)C)c(OCC(=O)NCCC(=O)N2CCC(Nc3cc(C(=O)NC[C@H](O)CN4CCc5ccccc5C4)ncn3)CC2)c1 | Active | Active | Active | Active

Second part, the compound after the results:

Row | Activity [1] | Activity [2] | Activity [3] | Activity [4] | Compound
19 | Active | Active | Active | Active | Cc1ncsc1-c1ccc([C@H](C)NC(=O)[C@@H]2C[C@@H](O)CN2C(=O)[C@@H](NC(=O)CCOCCOCCOCCOCCC(=O)N2CCC(Nc3cc(C(=O)NC[C@H](O)CN4CCc5ccccc5C4)ncn3)CC2)C(C)(C)C)cc1
20 | Active | Active | Active | Active | Cc1ncsc1-c1ccc([C@H](CC(=O)NCCOCCOCCOCCC(=O)N2CCC(Nc3cc(C(=O)NC[C@H](O)CN4CCc5ccccc5C4)ncn3)CC2)NC(=O)[C@@H]2C[C@@H](O)CN2C(=O)[C@@H](NC(=O)C2(F)CC2)C(C)(C)C)cc1
21 | inactive | Active | inactive | inactive | Cc1ncsc1-c1ccc(CNC(=O)[C@@H]2C[C@@H](O)CN2C(=O)[C@@H](NC(=O)C2(F)CC2)C(C)(C)C)c(OCC(=O)NCCOCCOCCOCCOCCC(=O)N2CCC(Nc3cc(C(=O)NC[C@H](O)CN4CCc5ccccc5C4)ncn3)CC2)c1
22 | Active | Active | Active | Active | Cc1ncsc1-c1ccc([C@H](CC(=O)NCCOCCOCCC(=O)N2CCC(Nc3cc(C(=O)NC[C@H](O)CN4CCc5ccccc5C4)ncn3)CC2)NC(=O)[C@@H]2C[C@@H](O)CN2C(=O)[C@@H](NC(=O)C2(F)CC2)C(C)(C)C)cc1
23 | inactive | Active | inactive | inactive | Cc1ncsc1-c1ccc(CNC(=O)[C@@H]2C[C@@H](O)CN2C(=O)[C@@H](NC(=O)C2(F)CC2)C(C)(C)C)c(OCC(=O)NCCOCCOCCOCCOCCOCCC(=O)N2CCC(Nc3cc(C(=O)NC[C@H](O)CN4CCc5ccccc5C4)ncn3)CC2)c1
24 | inactive | Active | inactive | inactive | Cc1ncsc1-c1ccc([C@H](C)NC(=O)[C@@H]2C[C@@H](O)CN2C(=O)[C@@H](NC(=O)COCCOCCOCCOCCOCC(=O)N2CC(Nc3cc(C(=O)NC[C@H](O)CN4CCc5ccccc5C4)ccn3)C2)C(C)(C)C)cc1
25 | Active | Active | Active | Active | Cc1ncsc1-c1ccc([C@H](C)NC(=O)[C@@H]2C[C@@H](O)CN2C(=O)[C@@H](NC(=O)CCOCCOCCOCCOCCOCCC(=O)N2CCC(Nc3cc(C(=O)NC[C@H](O)CN4CCc5ccccc5C4)ncn3)CC2)C(C)(C)C)cc1
26 | Active | Active | Active | Active | Cc1ncsc1-c1ccc([C@H](CC(=O)NCCOCCOCCOCCOCCC(=O)N2CCC(Nc3cc(C(=O)NC[C@H](O)CN4CCc5ccccc5C4)ncn3)CC2)NC(=O)[C@@H]2C[C@@H](O)CN2C(=O)[C@@H](NC(=O)C2(F)CC2)C(C)(C)C)cc1
27 | Active | Active | Active | Active | Cc1ncsc1-c1ccc([C@H](C)NC(=O)[C@@H]2C[C@@H](O)CN2C(=O)[C@@H](NC(=O)COCCOCCOCCOCCOCC(=O)N2CCC(Nc3cc(C(=O)NC[C@H](O)CN4CCc5ccccc5C4)ncn3)CC2)C(C)(C)C)cc1
